In publication PMC5578999, “Novel quinolone chalcones targeting colchicine-binding pocket kill multidrug-resistant cancer cells by inhibiting tubulin activity and MRP1 function” (Scientific Reports, 2017):

What was measured:
[1] = test system: MDA-MB-231; experiment: SRB cell viability and combinational index; assay type: cell-based; settings: Homo sapiens; MDA-MB-231 cells
Experimental: (§1) Dr. Susan Cole (Queen’s Universit y, Kingston, Ontario, Canada). The pacl itaxel-resistant MDA-MB-231TaxR cell line was generated in house b y culturing MDA-MB-231 cells (purchased from ATCC and authen ticated ) in the gradual l y incr easi ng con centr ations of pacl itax el until the concentration reached to 100 nM. Cell line authentication was carried out by Genetica DNA Laboratories (Burlington, NC) using a short tandem repeat (STR) profiling method (March 2015; […]
(§2) Cell viability, com binational i ndex and cell synchronization
(§3) Cell viability and proliferation were ex amined using a s ulforhodamine B (SRB) assa y as described previousl y (Hu et al., 2008). IC 50 values were calculat ed from si gmoidal dose-response cu rves gen erat ed b y at least two indepen dent ex periments , with each quadruplicate samples, using GraphPad Prism v.5.04 software (GraphPad Software, Inc, La J olla, CA). […]
737/ABT-199 w ere us ed at or below IC 50 . The combinational index (CI) w as calculat ed as previousl y described (Chou, 2006). […]
(§4) (Romero and Lee, 2008), and the cells were r eleas ed in to complete medium in the absence (sham) or presence of compound(s). […]

[2] = biological target: T1, MRP1 (Homo sapiens, UniProt P33527); experiment: Calcein-AM retention assay, HEK293-MRP1 cells; assay type: cell-based; settings: 22 µmol/L, DMSO control 52%
T1 construct: expressed in transfected cells; host or cells: HEK293-MRP1 (gift of Dr. Susan Cole)
T1 sequence (P33527 whole entry): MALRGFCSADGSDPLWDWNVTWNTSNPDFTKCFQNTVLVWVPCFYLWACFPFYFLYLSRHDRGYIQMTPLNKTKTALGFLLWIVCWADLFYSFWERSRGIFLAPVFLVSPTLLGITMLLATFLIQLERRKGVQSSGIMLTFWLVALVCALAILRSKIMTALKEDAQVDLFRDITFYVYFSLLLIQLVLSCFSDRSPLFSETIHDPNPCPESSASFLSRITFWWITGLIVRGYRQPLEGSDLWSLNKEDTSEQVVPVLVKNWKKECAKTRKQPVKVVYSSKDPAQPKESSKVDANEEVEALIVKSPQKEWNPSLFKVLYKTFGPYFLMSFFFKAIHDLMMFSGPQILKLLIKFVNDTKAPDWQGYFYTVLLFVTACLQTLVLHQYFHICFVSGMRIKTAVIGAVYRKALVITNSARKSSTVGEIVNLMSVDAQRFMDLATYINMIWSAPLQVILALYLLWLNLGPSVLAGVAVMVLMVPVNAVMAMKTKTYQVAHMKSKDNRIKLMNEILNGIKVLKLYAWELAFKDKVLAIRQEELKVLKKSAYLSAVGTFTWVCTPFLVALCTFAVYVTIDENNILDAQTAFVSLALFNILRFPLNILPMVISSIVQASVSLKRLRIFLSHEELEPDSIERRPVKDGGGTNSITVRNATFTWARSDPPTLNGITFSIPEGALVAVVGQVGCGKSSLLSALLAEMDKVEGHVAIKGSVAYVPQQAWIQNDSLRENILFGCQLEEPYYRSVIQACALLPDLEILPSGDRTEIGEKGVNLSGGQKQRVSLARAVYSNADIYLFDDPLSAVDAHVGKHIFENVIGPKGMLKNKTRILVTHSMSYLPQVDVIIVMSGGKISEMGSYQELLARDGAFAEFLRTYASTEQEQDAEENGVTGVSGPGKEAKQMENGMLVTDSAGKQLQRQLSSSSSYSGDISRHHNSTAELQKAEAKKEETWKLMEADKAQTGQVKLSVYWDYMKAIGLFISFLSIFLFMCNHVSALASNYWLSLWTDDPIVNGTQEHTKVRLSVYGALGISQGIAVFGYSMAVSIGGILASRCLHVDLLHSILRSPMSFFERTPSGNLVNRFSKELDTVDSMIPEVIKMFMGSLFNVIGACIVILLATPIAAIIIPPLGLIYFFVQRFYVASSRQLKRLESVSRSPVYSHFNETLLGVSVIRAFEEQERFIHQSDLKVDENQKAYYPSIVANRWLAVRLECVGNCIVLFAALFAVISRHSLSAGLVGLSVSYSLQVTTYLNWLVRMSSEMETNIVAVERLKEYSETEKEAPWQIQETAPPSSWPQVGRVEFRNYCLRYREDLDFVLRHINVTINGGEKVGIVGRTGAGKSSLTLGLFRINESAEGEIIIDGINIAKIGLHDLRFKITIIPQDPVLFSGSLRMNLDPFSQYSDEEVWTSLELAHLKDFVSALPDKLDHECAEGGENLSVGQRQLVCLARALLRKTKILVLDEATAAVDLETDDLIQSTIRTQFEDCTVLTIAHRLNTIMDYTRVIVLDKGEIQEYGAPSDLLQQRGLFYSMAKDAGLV

[3] = biological target: T1, MRP1; experiment: Rh123 dye efflux assay, HEK293-MRP1 cells; assay type: cell-based; settings: 22 µmol/L of drug, DMSO control 39.6%
Experimental: Rhodamine123 (Rh123) drug efflux was carried out using a Multidrug-Resistance Direct Dye Efflux Activity Kit (Millipore, Darmstadt, Germany), with some modifications. […] Reading was carried out with a Beckman Coulter FC500 flow cytometer.

[4] = test system: HEK293-MRP1; experiment: SRB cell viability, MRP1-overexpressing cells; assay type: cell-based, human; settings: HEK293-MRP1 vs HEK293
Description: Parental HEK293 and M RP1- overexpressing HEK293- MRP1 isogenic cel ls were kind gifts of Dr. Susan Cole (Queen’s Universit y, Kingston, Ontario, Canada). […]
as §2
(§5) Cell viability and proliferation were ex amined using a s ulforhodamine B (SRB) assa y as […]
(§6) IC 50 values were calculat ed from si gmoidal dose-response cu rves gen erat ed b y at least two indepen dent ex periments , with each quadruplicate samples, using GraphPad Prism v.5.04 software (GraphPad Software, Inc, La J olla, CA). […]
(§7) (sham) or presence of compound(s). […]

[5] = test system: MDA-MB-231TaxR; experiment: SRB cell viability, paclitaxel-resistant cells; assay type: cell-based; settings: MDA-MB-231TaxR vs MDA-MB-231
Experimental: as §1, §2, §3, §4

[6] = test system: KB-C-2; experiment: SRB cell viability, MDR1-overexpressing cells; assay type: cell-based; settings: Homo sapiens, KB-C2; KB-C-2; Table S1
Experimental: (§8) human epidermoid carcinoma cell line and KB-C2, an isogenic MDR1- overexpressing drug-resistant cell line, were kindl y provided b y Dr. Amit K Tiwari, the Universit y of Toledo, OH. […]
(§9) Cell line authentication was carried out by Genetica DNA
as §2, §5, §6, §7

[7] = test system: H69AR; experiment: SRB cell viability, multidrug-resistant cells; assay type: cell-based; settings: Table S1; for Resistance (fold): H69AR vs SW-1271; for IC50: Homo sapiens, H69AR
Experimental: as §9, §2, §5, §6, §7

[8] = test system: KB-C-2; experiment: SRB cell viability, MDR1-overexpressing cells; assay type: cell-based, human; settings: for Resistance (fold): KB-C-2 vs KB-C-1, Table S1
[9] = test system: SW-1271; experiment: SRB cell viability; assay type: cell-based; settings: SW1271, Table S1
Experimental: as §9, §2, §5, §6, §7

[10] = test system: MDA-MB-231 triple-negative metastatic breast cancer cells; experiment: Antitumor activity in engrafted athymic mice; assay type: in vivo, ATH490 athymic mice
Experimental: The animals were then immediately euthanized by carbon dioxide. […]
Supplementary Table S2. A typical treatment protocol of engrafted mice with CTR alone or in
combination with paclitaxel.
Treatment Dos a ge Frequ enc y Route Notes
Sham control Highest volume E v e r y 3-4 d a ys Intraperitoneal (I.P.) Vehicle onl y
Taxa 10 mg/kgb Once/week Intravenous ( I.V.)
CTR-17 (30) 30 mg/kg E v e r y 3-4 d a ys I. P .
CTR-20 (30) 30 mg/kg E v e r y 3-4 d a ys I. P .
Supplementary Table S 3: Antitumor activity of CTR -17 and CTR -20, alone or in combination
a Tax: paclitaxel. b mg per kg of bod y wei ght. c unit is mm 3. […]

[11] = mouse, in vivo
Experimental: Athymic mice engrafted with tumor cells were used to determine antitumor activity. […] When tumor size reached 5–6 mm in diameter (n = 4–5 per group), mice were randomly assigned into several groups and vehicle-treated or treated with drug(s). […] Animals were monitored for food and water consumption every day, and their body weights and tumor volumes were measured twice per week. Tumor volumes were measured with a digital caliper and were determined by the following formula: ½ length × width^2. Blood samples were collected via cardiac puncture and processed for ALT and AST measurements. The animals were then immediately euthanized by carbon dioxide. Tumors and vital organs (spleen, kidney, liver and lung) were harvested and fixed in 10% buffered formalin at 4 °C overnight before being processed for a paraffin embedding. The paraffin-embedded blocks were then sectioned to 4–5 µm thick. Each section was stained with haematoxylin and eosin (H&E).

[12] = test system: KB-C-1; experiment: SRB cell viability, parental cells; assay type: cell-based; settings: Homo sapiens, KBC-1; KB-C-1; Table S1
Experimental: as §8, §9, §2, §5, §6, §7

| Structure (SMILES) | IC50 [1] [nM] | IC50 [6] [nM] | Resistance (fold) [7] [fold] | IC50 [7] [nM] | resistance ratio of KB-C-2 vs KB-C-1 cells [8] [folds] | Resistance (fold) [8] [fold] | IC50 [9] [nM] | IC50 [12] [nM] | other results |
| --- | --- | --- | --- | --- | --- | --- | --- | --- | --- |
| CC1(C)CCC(CN2CCN(c3ccc(C(=O)NS(=O)(=O)c4ccc(NCC5CCOCC5)c([N+](=O)[O-])c4)c(Oc4cnc5[nH]ccc5c4)c3)CC2)=C(c2ccc(Cl)cc2)C1 [ABT-199] | 11600 ± 1130 | – | – | – | – | – | – | – | – |
| CN(C)CC[C@H](CSc1ccccc1)Nc1ccc(S(=O)(=O)NC(=O)c2ccc(N3CCN(Cc4ccccc4-c4ccc(Cl)cc4)CC3)cc2)cc1[N+](=O)[O-] [ABT-737] | 28500 ± 3990 | – | – | – | – | – | – | – | – |
| COc1cc2c(c(OC)c1OC)-c1ccc(OC)c(=O)cc1[C@@H](NC(C)=O)CC2 [colchicine] | – | – | – | – | – | – | – | – | calcein-AM retained in the cells [2]: 59%; Rh123 retention [3]: 77.6%; resistance of MRP1-overexpressing HEK293 cells [4]: approximately 3.5 fold |
| CC(=O)O[C@H]1C(=O)[C@@]2(C)[C@H]([C@H](OC(=O)c3ccccc3)[C@]3(O)C[C@H](OC(=O)[C@H](O)[C@@H](NC(=O)c4ccccc4)c4ccccc4)C(C)=C1C3(C)C)[C@]1(OC(C)=O)CO[C@@H]1C[C@@H]2O [paclitaxel, reference compound] | – | 23.08 ± 0.21 | 2.44 | 11 ± 2.6 | 11.48 | 11.48 | 4.51 ± 0.71 | 2.01 ± 0.17 | resistance of MDA-MB-231TaxR [5]: 114 times; tumor volume Day 0 ([10]; Tax 10 mg/kg i.v. once/week, CTR 30 mg/kg i.p. every 3-4 days, combinations Tax 5 + CTR 15 mg/kg once/week): 91.84 mm3; tumor volume Day 6 ([10]; Tax 10 mg/kg i.v. once/week, CTR 30 mg/kg i.p. every 3-4 days, combinations Tax 5 + CTR 15 mg/kg once/week, sham 105.03): 90.11 mm3; tumor volume Day 14 ([10]; same doses, sham 136.66): 94.66 mm3; tumor volume Day 17 ([10]; same doses, sham 162.62): 92.33 mm3; tumor volume Day 20 ([10]; same doses, sham 192.69): 81.66 mm3; tumor volume Day 24 ([10]; same doses, sham 268.08): 95.61 mm3; tumor volume Day 27 ([10]; same doses, sham 426.87): 139.41 mm3; tumor volume Day 30 ([10]; same doses, sham 557.66): 170.36 mm3; mice showing presence of hyaline in kidney [11]: one in four mice |
| CC[C@]1(O)C[C@@H]2CN(CCc3c([nH]c4ccccc34)[C@@](C(=O)OC)(c3cc4c(cc3OC)N(C)[C@H]3[C@@](O)(C(=O)OC)[C@H](OC(C)=O)[C@]5(CC)C=CCN6CC[C@]43[C@@H]65)C2)C1 [vinblastine] | – | 9.27 ± 3.22 | 5.82 | 10.2 ± 1.97 | 15.20 | 15.20 | 1.75 ± 0.21 | 0.61 ± 0.09 | – |
